# Data as given in US8552018B2, “Substituted tricyclic compounds as protein kinase inhibitors” (Arizona Board of Regents on behalf of the University of …, priority 2003, dated 2013).
# How the values were obtained:
# aurora-2 kinase = target: T1, aurora-2 kinase (Homo sapiens, UniProt O14965); assay: Aurora-2 kinase inhibition assay (Kinase-Glo); assay type: biochemical; details: aurora-2 kinase, FIG. 11
# T1 construct: purchased Imgenex, San Diego, Calif; host or cells: sf9 cells
# T1 sequence (O14965 1-403): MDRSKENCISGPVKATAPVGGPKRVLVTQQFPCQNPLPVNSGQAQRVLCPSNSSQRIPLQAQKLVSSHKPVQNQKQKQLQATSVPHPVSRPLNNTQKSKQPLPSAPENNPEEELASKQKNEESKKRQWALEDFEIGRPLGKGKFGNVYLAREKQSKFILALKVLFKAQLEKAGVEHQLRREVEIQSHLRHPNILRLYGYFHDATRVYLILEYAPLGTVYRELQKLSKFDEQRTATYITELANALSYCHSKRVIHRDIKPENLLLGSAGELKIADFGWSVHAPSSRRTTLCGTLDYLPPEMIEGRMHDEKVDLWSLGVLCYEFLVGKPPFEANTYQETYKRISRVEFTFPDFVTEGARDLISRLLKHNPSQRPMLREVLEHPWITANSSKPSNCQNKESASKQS
# Experimental: In this assay kinase activity is determined by quantifying the amount of ATP remaining in solution following the kinase reaction by measuring the light units (LU) produced by luciferase using a luminometer. Percent inhibition was determined for individual compounds by comparing luminometer readings of drug-treated reactions to controls containing no drug (DMSO control) and no Aurora-2 enzyme (ATP control) in the following equation: […]
# In a 50 μl reaction, recombinant aurora-2 kinase produced in sf9 cells (Imgenex, San Diego, Calif.) was incubated at 30° C. for two hours with 62.5 μM Kemptide (Calbiochem, San Diego, Calif.), 3 μM ATP (Invitrogen, Carlsbad, Calif.) and kinase reaction buffer (40 mM Tris-HCl, 10 mM MgCl2 and 0.1 μg/μl bovine serum albumin (BSA)). This reaction was carried out in the presence of drug substances, which had been previously diluted to desired concentrations in DMSO. After incubation, 50 μl of Kinase-Glo® (Promega, Inc., Madison, Wis.) solution was added to each reaction mixture and allowed to equilibrate for 10 minutes at room temperature. Kinase-Glo solution contains luciferase enzyme and luciferin, which react with ATP to produce light. Kinase activity is determined by quantifying the amount of ATP remaining in solution following the kinase reaction by measuring the light units (LU) produced by luciferase using a luminometer (PerkinElmer, Boston, Mass.).
# GIST882 cell line [1] = assay: GIST882 cell growth assay (Cell-Titer-Glo); assay type: cell-based; details: Homo sapiens; GIST882, 96 hours
# Experimental: (§1) Briefly, cells are seeded into 96-well, tissue-culture treated, opaque white plates (Thermo Electron, Vantaa, Finland), at between 5000 and 7500 cells per well, depending on the speed of cell proliferation, in 100 μl of appropriate growth medium (determined by the ATCC). Cells are then exposed to the appropriate concentration of drug or an equal amount of DMSO (drug diluent) and allowed to grow in its presence for 96 hours. Following this, 100 μl of Cell-Titer-Glo reagent (Promega, Inc., Madison, Wis.) is added to each well. Plates are then shaken for 2 minutes at room temperature to allow for cell lysis and incubated for 10 minutes to stabilize the luminescent signal. Similar to the Kinase-Glo assay reagent, this reagent contains both luciferase enzyme and its substrate luciferin. Luciferase, activated by ATP in the cell lysate, catalyzes the conversion of luciferin to oxyluciferin, a reaction which produces light. The amount of light produced is proportionate to the amount of ATP in the cell lysate, which is itself proportional to cell number and gives an index of cellular proliferation.
# as §1, with “Various compounds of the invention, including (IV-1-3) (also referred to as HPK16), (III-1-3) (also referred to as HPK56), (III-1-4) (also referred to as HPK57), (III-1-5) (also referred to as HPK59), and (II-2-7) (also referred to as HPK61) were tested for activity against GIST tumor cells using the GIST882 cell line. Briefly,” for “Briefly,”
# GIST882 cell line [2] = assay: Cancer cell cytotoxicity assay (sulforhodamine B); assay type: cell-based; details: for IC50: Homo sapiens, 96 h, GIST882, 4 days, read-out: IC50 c-kit GIST882
# Experimental: To validate the hypothesis that the designed c-kit/PDGFR tyrosine kinase inhibitors mediate GIST882 cell killing and PDGFR-mediated cell killing of pancreatic cancer cell lines (CFPAC-1, PANC-1 and MIA PaCa-2), an in vitro cytotoxicity assay was performed. The GIST882 cell line used in this study has a c-kit gain-of-function mutation (K642E). […] First the cells were cultured. GIST882 cells were provided by Dr. Jonathan A. Fletcher (Dana-Farber Cancer Institute, Boston, Mass.). PANC-1 and MIAPaCa-2 cells were provided by Dr. Daniel Von Hoff (Arizona Cancer Center, Tucson, Ariz.). […] All the cell lines were incubated in a humidified incubator at 37° C. with 5% CO2 atmosphere.
# (§2) After incubation for 4 days at 37° C. in a humidified incubator, the cells were fixed with 10% Trichloroacetic acid solution (Catalog No. 490-10, Sigma). Subsequently, they were labeled with 0.04% Sulforhodamine B (S9012, Sigma) in 1% acetic acid. After multiple washes to remove excess dye, 100 μl of 50 mM Tris solution was added to each well in order to dissolve the dye. The absorbance of each well was read on a plate reader (Wallac Vector^2, PerkinElmer) at the wavelength of 570 nm. Data were expressed as the percentage of survival of control calculated from the absorbance corrected for background absorbance. The surviving percent of cells was determined by dividing the mean absorbance values of the […] by the mean absorbance values of the control and multiplying by 100.
# PANC-1 cells = assay: Cancer cell cytotoxicity assay (sulforhodamine B); assay type: cell-based; details: Homo sapiens, 96 h; PANC-1, 4 days; read-out: IC50 PDGFR PANC-1
# Experimental: (§3) To validate the hypothesis that the designed c-kit/PDGFR tyrosine kinase inhibitors mediate GIST882 cell killing and PDGFR-mediated cell killing of pancreatic cancer cell lines (CFPAC-1, PANC-1 and MIA PaCa-2), an in vitro cytotoxicity assay was performed. The GIST882 cell line used in this study has a c-kit gain-of-function mutation (K642E). The assay utilized the Cell Titer 965 Non-Radioactive Cell Proliferation Assay (Promega Corp., Madison, Wis.). First the cells were cultured. GIST882 cells were provided by Dr. Jonathan A. Fletcher (Dana-Farber Cancer Institute, Boston, Mass.). PANC-1 and MIAPaCa-2 cells were provided by Dr. Daniel Von Hoff (Arizona Cancer Center, Tucson, Ariz.). GIST882 cells were cultured in RPMI 1640 medium (Cat #21870-076, Invitrogen Corporation) supplemented with 300 mg/L L-glutamine, 100 unit/ml penicillin, 100 μg/ml streptomycin and 15% fetal bovine serum. PANC-1 and MIAPaCa-2 cells were maintained in RPMI 1640 medium (cat #10-040, Mediatech, Inc.) supplemented with 100 unit/ml penicillin, 100 μg/ml streptomycin and 10% fetal bovine serum. All the cell lines were incubated in a humidified incubator at 37° C. with 5% CO2 atmosphere.
# as §2, with “Cells were plated at a density of 2000 to 10000 cells per well, depending on their growth rate, in 0.1 mL medium on day 0 in 96-well Falcon microtiter plates (#3072, Becton-Dickinson Labware, Lincoln Park, N.J.). On day 1, 10 μL of serial dilutions of the individual compounds were added to the plates in replicates of 4. After incubation” for “After incubation”
# MIAPaCa-2 cells = assay: Cancer cell cytotoxicity assay (sulforhodamine B); assay type: cell-based; details: Homo sapiens, MIA PaCa-2, 96 h; MIAPaCa-2, 4 days; read-out: IC50 PDGFR MIAPaCa
# Experimental: as §3
# as §2, with “Cells were plated at a density of 2000 to 10000 cells per well, depending on their growth rate, in 0.1 mL medium on day 0 in 96-well Falcon microtiter plates (#3072, Becton-Dickinson Labware, Lincoln Park, N.J.). On day 1, 10 μL of serial dilutions of the individual compounds were added to the plates in replicates of 4. After incubation” for “After incubation”
# metastatic GISTs = details: 400 mg or 600 mg per day, patients assessed at 1-3 months; cited from earlier work
# [3] = system: Akt phosphorylation in LNCaP prostate carcinoma cells; assay: Immunoblot for phospho-Akt (S473); assay type: cell-based; details: 48 hours, agent alone
# Experimental: LNCaP prostate carcinoma cells were treated with MP-470, in combinations with Tarceva® and Gleevec®, for 48 hours. Following incubation, cells were lysed and total protein subjected to immunoblot analysis for total Akt and phospho-Akt (S473).
# [4] = system: Akt phosphorylation in NIH 3T3 cells; assay: Immunoblot for phospho-Akt (S473); assay type: cell-based; details: NIH 3T3, 4 hours, agent alone
# Experimental: (§4) In order to evaluate these effects at the cellular level, immunoblot analysis was performed on lysates from cells treated with MP470, with or without the addition of the EGFR inhibitor Tarceva®. Lysates were assayed for general tyrosine kinase activity, as well as the specific phosphorylation of c-Met and Akt. Briefly, NIH 3T3 cells were pretreated with drugs as indicated for 4 hours, then treated with pervanadate for a further 30 minutes. Immunoblot detection was carried out with antibodies for phosphotyrosine, phospho-Met and phospho-Akt (S473), as well as total c-Met and Akt. Beta-actin was used as a loading control.
# [5] = system: c-Met autophosphorylation in NIH 3T3 cells; assay: Immunoblot for phospho-Met; assay type: cell-based; details: NIH 3T3, 4 hours, agent alone
# Experimental: as §4, with “MP-470 (Compound III-1-3) has inhibitory effects on a number of receptor tyrosine kinases. In” for “In”
Compound,IC50 (GIST882 cell line [1]) [µM],IC50 (GIST882 cell line [2]) [µM],IC50 (PANC-1 cells) [µM],IC50 (MIAPaCa-2 cells) [µM],other results
"COc1cc2ncnc(Nc3ncc(NC(=S)NCc4ccc5c(c4)OCO5)cn3)c2cc1OC [AKS110, 1-Benzo[1,3]dioxol-5-yl methyl-3-[2-(6,7-dimethoxy-quinazolin-4ylamino)-pyrimidin-5yl]-thiourea]",,,,,IC50 (aurora-2 kinase): 36 µM
"S=C(NCc1ccc2c(c1)OCO2)N1CCN(c2ncnc3c2sc2ncccc23)CC1 [HPK57, 4-(9-Thia-1,5,7-triaza-fluoren-8-yl)-piperazine-1-carbothioic acid (benzo[1,3]dioxol-5-ylmethyl)-amide]",28,28,> 50,> 50,
"O=S(=O)(Nc1ncccn1)c1ccc(NC(=S)N2CCN(c3ncnc4c3oc3ccccc34)CC2)cc1 [HPK59, 4-Benzo[4,5]furo[3,2-d]pyrimidin-4-yl-piperazine-1-carbothioic acid [4-(pyrimidin-2-ylsulfamoyl)-phenyl]-amide]",27.5,27.5,,,
"O=S(=O)(Nc1ncccn1)c1ccc(NC(=S)N2CCN(c3ncnc4c3sc3ncccc34)CC2)cc1 [HPK60, 4-(9-Thia-1,5,7-triaza-fluoren-8-yl)-piperazine-1-carbothioic acid [4-(pyrimidin-2-ylsulfamoyl)-phenyl]-amide]",50,50,> 50,> 50,
Cc1ccc(NC(=O)c2ccc(CN3CCN(C)CC3)cc2)cc1Nc1nccc(-c2cccnc2)n1 [STI571],,,,,"cells alive at day 4 (GIST882 cell line [2]; GIST882, day 4): 25%; partial response (metastatic GISTs): 54%; progressive disease (metastatic GISTs): 12%; stable disease (metastatic GISTs): 34%"
"C#Cc1cccc(Nc2ncnc3cc(OCCOC)c(OCCOC)cc23)c1 [Tarceva®, reference compound]",,,,,phosphorylation of Akt [3]: did not appear to have an effect; phosphorylation of Akt [4]: Neither of these effects was observed; activating autophosphorylation of c-Met [5]: Neither of these effects was observed
